Calls of active or inactive are those of the source. How the calls were made is not given here.

For the assay, the system named is V. cholerae SLS353 luxOD47E qrr4-GFP fluorescence. As to the kind of experiment: Quorum LuxO inhibitors, V. cholerae SLS353 luxOD47E qrr4 GFP fluorescence, confirmatory dose response (AID 652219).
By AC50 is commonly meant the concentration at which the activity in the assay is half-maximal. For `CCCn1nnnc1NCc1ccc(C(C)C)cc1`, the AC50 was > 500 µM (inactive). In the case of `Cc1ccc(OCCNC(=O)c2cccc(C)c2)cc1`, the AC50 is 100 µM (inactive). The value for `O=c1ncn(-c2cccc(Cl)c2)c2ccccc12` was 250 µM. On to `O=C(Cc1ccc(-c2ccccc2)cc1)NC1CCCC1`, for which the AC50 is > 500 µM (inactive). In the case of `CCOc1ccc(Nc2ccc3nonc3c2[N+](=O)[O-])cc1`, the AC50 is > 500 µM (inactive). The value for `COc1ccc(Cl)cc1NC(=O)COC(=O)c1ccc(C)o1` was > 500 µM (inactive); that for `CCC(C)NC(=O)Cc1ccc(-c2ccccc2)cc1` (stereo not given) was > 500 µM (inactive). Under `COc1ccccc1NC(=O)COC(=O)c1ccc(C)cc1` stands > 500 µM (inactive); under `Cc1ccc2cc3c(NC(=O)c4ccco4)nn(C)c3nc2c1`, 4 µM.

As to `COc1ccccc1NC(=O)COC(=O)c1oc2ccccc2c1C`, the AC50 is > 500 µM (inactive). For the molecule `CCn1nnnc1NCc1ccc(N2CCCC2)cc1`, the AC50 is > 500 µM (inactive). Turning to `CCCn1nnnc1NCc1ccc(N2CCCC2)cc1`, the AC50 is > 500 µM (inactive). `O=C(Nc1nnc(-c2ccc3c(c2)OCCO3)o1)C1CCCCC1`: the AC50 was 2 µM. `CCCn1nnnc1NCc1ccc(N(CC)CC)cc1`: the AC50 was > 500 µM (inactive).

As for `COc1ccccc1NC(=O)COC(=O)c1cc2c(s1)CCC2`, the AC50 was > 500 µM (inactive).

Source of the values: PubChem BioAssay AID652219 (Broad Institute, 2013).
